From patent US7435587B2, “Apparatus for growing cells under variable hydrostatic pressures” (Memorial Sloan-Kettering Cancer Center, priority 2002, dated 2008)
Entries after “also recorded” stand apart in the source; their conditions may differ.

Columns and labels:
Assay type in all cases: cell-based, human
[1] = test system: HOS cells; assay: Chemosensitivity testing in a pressurized cassette-HPA system (in situ cell counts); details: for differences in growth between the pressurized and non-pressurized systems: 0 vs 20 mmHg, 72 h under pressure with drug, at 0.16 and 1 μ/ml; for difference in viability (cell counts under pressure) between 0 and 20 mmHg: testing under pressure, clinically relevant range of 0.04 to 4 μ/ml
Experimental: To investigate chemosensitivity in a pressurized system, 1.5×10^4 HOS cells were seeded in 16 cassettes. These were incubated for 24 hours and baseline counts were made at the end of 24 hours. Serial dilutions of doxorubicin were added at a dose of 0 μg/ml, 0.16 μg/ml, 1 μg/ml and 8 μg/ml. […] Two sets were provided for each drug at 0 and 20 mmHg. Pressurization proceeded for 72 hours as described above. At the end of this time point, in situ cell growth over the identical 5 high power fields recorded after the first 24 hours were made. The observer was blinded to the identity of the sample being read. Cell growth was expressed as a ratio between the 72 hour and baseline 24 hour counts. This was then normalized to the readings for cells that were not exposed to chemotherapy (i.e. 0 μg/ml). This was done to account for cell growth changes that could result from the pressure effect itself. Student's T-test was used to assess for significance between the results of chemosensitivity at 0 and 20 mmHg. […] Each data point represents the mean of five readings with error bars representing the standard error of the mean.

[2] = test system: HOS cells; assay: Conventional 96-well chemosensitivity testing of HOS cells grown under pressure, de-pressurized, trypsinized and reattached 24 h (Alamar blue); details: tested at atmospheric pressure, p<0.05; for difference in the ED50 between cells grown at atmospheric pressure and those grown under 20 mmHg of pressure: HOS cells grown 72 h at 0 vs 20 mmHg, de-pressurized, difference is small
Experimental: HOS cells were pressurized at 0 and 20 mmHg for 72 hours. At the end of this time point the growth membrane was removed and discs were created with a sterile punch. These discs bearing 2000 cells/disc were placed within each of the wells in a Costar 96-well plate (Bio-Rad, Hercules, Calif.). Serial dilutions of doxorubicin were immediately applied to the wells at a dose of 100 μg/ml to 0.00128 μg/ml. These were allowed an exposure time of 24 hours and then washed with PBS and 200 μl growth media replaced for a further 24 hours 25 μl of Alamar blue dye® (BioSource International, Camarillo, Calif.) was added for a further 8 hours and metabolic activity read with a Cytofluor® plate reader (Applied Biosystems, Foster City, Calif.). Metabolic activity was expressed as per manufacturer recommendations (BioSource International, Camarillo, Calif.). The experiment was repeated using cells grown at 72 hours under pressure, de-pressurized to atmospheric pressure and then trypsinized and seeded at 2000 cells per well and allowed 24 hours to gain attachment. They were then treated with doxorubicin. Assessment was completed as above. […] Student's t-test was used to assess for significance between the results of chemosensitivity at 0 and 20 mmHg. […] Each data point represents the mean of six readings with error bars representing the standard deviation.

[3] = test system: HOS cells; assay: Chemosensitivity testing of membrane discs bearing pressurized HOS cells immediately exposed to drug in 96-well plate (Alamar blue); details: HOS cells grown under pressure 72 h, cut from membranes, 24 h drug exposure at atmospheric pressure, no 24 h de-pressurization
Experimental: HOS cells were pressurized at 0 and 20 mmHg for 72 hours. At the end of this time point the growth membrane was removed and discs were created with a sterile punch. These discs bearing 2000 cells/disc were placed within each of the wells in a Costar 96-well plate (Bio-Rad, Hercules, Calif.). Serial dilutions of doxorubicin were immediately applied to the wells at a dose of 100 μg/ml to 0.00128 μg/ml. These were allowed an exposure time of 24 hours and then washed with PBS and 200 μl growth media replaced for a further 24 hours 25 μl of Alamar blue dye® (BioSource International, Camarillo, Calif.) was added for a further 8 hours and metabolic activity read with a Cytofluor® plate reader (Applied Biosystems, Foster City, Calif.). Metabolic activity was expressed as per manufacturer recommendations (BioSource International, Camarillo, Calif.).

Question: With N.N.[Cl][Pt][Cl] [cisplatin] as the compound, how does the “differences in growth between the pressurized and non-pressurized systems” value [1] read?
Answer: Its value is “marked differences in growth”.

Question: And the “difference in viability (cell counts under pressure) between 0 and 20 mmHg” value [1]?
Answer: Its value is “dramatic difference in viability”.

Question: And the “difference in the ED50 between cells grown at atmospheric pressure and those grown under 20 mmHg of pressure” value [2]?
Answer: Its value is “statistically significant difference”.

Question: Which results are given for COc1cccc2c1C(=O)c1c(O)c3c(c(O)c1C2=O)C[C@@](O)(C(=O)CO)C[C@@H]3O[C@H]1C[C@H](N)[C@H](O)[C@H](C)O1 [doxorubicin]?
Answer: differences in growth between the pressurized and non-pressurized systems [1]: marked differences in growth; difference in viability (cell counts under pressure) between 0 and 20 mmHg [1]: dramatic difference in viability; difference in the ED50 between cells grown at atmospheric pressure and those grown under 20 mmHg of pressure [2]: statistically significant difference; difference in cytotoxicity between cells grown at 0 and 20 mmHg ([2]; depressurized HOS cells, drug concentration range 0.04 to 4 μg/ml): statistically significant difference in cytotoxicity; difference in sensitivity between cells grown at 0 and 20 mmHg, membranes immediately exposed to drug [3]: this difference became more pronounced; also recorded: dramatic differences to sensitivity
